Like-named read-outs stand apart in the source and are kept apart here.
Biological target: Human Factor D (Homo sapiens (Human), UniProt P00746)
Assay: Human Factor D Assay
Assay type: biochemical
Summary of the method: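 Serum-purified human Factor D (80 nM final) was preincubated with test compound at various concentrations for 5 min at room temperature in 50 mM Tris, 1M NaCl, pH 7.5. Z-L-Lys-SBzl and DTNB were then added at 100 μM each. IC50 came from nonlinear regression of reaction rates versus compound concentration.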

[1] = Human Factor D 80 nM, substrate Z-L-Lys-SBzl, read-out: IC50
[2] = Human Factor D, Table 3, read-out: IC50
[3] = Table 3, Human Factor D 80 nM, substrate Z-L-Lys-SBzl, read-out: IC50 (Stars)
[4] = Human Factor D assay of Example 8, Table 2, read-out: IC50

Chain of Human Factor D (P00746 26-253): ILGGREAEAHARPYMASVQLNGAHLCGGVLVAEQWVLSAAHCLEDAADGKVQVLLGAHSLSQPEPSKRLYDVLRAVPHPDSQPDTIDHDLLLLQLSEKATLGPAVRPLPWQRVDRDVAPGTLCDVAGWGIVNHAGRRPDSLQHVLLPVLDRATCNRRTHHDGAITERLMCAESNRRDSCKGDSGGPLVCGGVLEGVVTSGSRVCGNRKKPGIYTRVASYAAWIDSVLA

## CC(=O)c1cn(CC(=O)N2C[C@H](F)C[C@H]2C(=O)N[C@@H]2CCC[C@H]2O)c2ccc(-c3ccnnc3)cc12 [Compound 143, (2S,4R)-1-(2-(3-acetyl-5-(pyridazin-4-yl)-1H-indol-1-yl)acetyl)-4-fluoro-N-((1R,2R)-2-hydroxycyclopentyl) pyrrolidine-2-carboxamide]
[1]
  IC50: > 10000 nM

## CC(=O)c1nn(CC(=O)N2C[C@H](F)C[C@H]2C(=O)Nc2cccc(Br)n2)c2ccc(-c3cnc4cc(C5CC5)nn4c3)cc12 [Compound 674, (2S,4R)-1-(2-(3-Acetyl-5-(2-cyclopropylpyrazolo[1,5-a]pyrimidin-6-yl)-1H-indazol-1-yl)acetyl)-N-(6-bromopyridin-2-yl)-4-fluoropyrrolidine-2-carboxamide]
[2]
  IC50: < 1000 nM

## CC(=O)c1nn(CC(=O)N2C[C@H](F)C[C@H]2C(=O)Nc2cccc(Cl)c2)c2ccc(-c3cnc(C)nc3)cc12 [Compound 508, (2S,4R)-1-(2-(3-Acetyl-5-(2-methylpyrimidin-5-yl)-1H-indazol-1-yl)acetyl)-N-(3-chlorophenyl)-4-fluoropyrrolidine-2-carboxamide]
[3]
  IC50: < 1000 nM

## CC(=O)c1cn(CC(=O)N2C[C@H](F)C[C@H]2C(=O)Nc2cccc(-c3ccccc3Cl)c2F)c2ccc(N3CCN(S(C)(=O)=O)CC3)cc12 [Compound 33, (2S,4R)-1-(2-(3-Acetyl-5-(4-(methylsulfonyl)piperazin-1-yl)-1H-indol-1-yl)acetyl)-N-(2′-chloro-2-fluoro-[1,1′-biphenyl]-3-yl)-4-fluoropyrrolidine-2-carboxamide]
[1]
  IC50: < 1000 nM

## COc1cccc(NC(=O)[C@@H]2C[C@@H](F)CN2C(=O)Cn2nc(C(C)=O)c3cc(-c4cnc(C)nc4)ccc32)n1 [Compound 580, (2S,4R)-1-(2-(3-Acetyl-5-(2-methylpyrimidin-5-yl)-1H-indazol-1-yl)acetyl)-4-fluoro-N-(6-methoxypyridin-2-yl)pyrrolidine-2-carboxamide]
[2]
  IC50: < 1000 nM

## CC(=O)c1nn(CC(=O)N2[C@@H]3C[C@@H]3C[C@H]2C(=O)NC/C(F)=C(\C)c2ccccc2Cl)c2ccc(-c3cnc(C)nc3)cc12 [Compound 528]
[3]
  IC50: < 1000 nM

## COC(=O)Cc1ncc(-c2ccc3c(c2)c(C(C)=O)nn3CC(=O)N2C[C@H](F)C[C@H]2C(=O)Nc2cccc(Br)n2)cn1 [Compound 529, methyl 2-(5-(3-acetyl-1-(2-((2S,4R)-2-((6-bromopyridin-2-yl)carbamoyl)-4-fluoropyrrolidin-1-yl)-2-oxoethyl)-1H-indazol-5-yl)pyrimidin-2-yl)acetate]
[3]
  IC50: < 1000 nM

## CC(=O)c1nn(CC(=O)N2C[C@H](F)C[C@H]2C(=O)Nc2cccc(Br)n2)c2ccc(-c3cnc(CO)nc3)cc12 [Compound 374, (2S,4R)-1-(2-(3-Acetyl-5-(2-(hydroxymethyl)pyrimidin-5-yl)-1H-indazol-1-yl)acetyl)-N-(6-bromopyridin-2-yl)-4-fluoropyrrolidine-2-carboxamide]
[3]
  IC50: < 1000 nM

## CC(=O)c1nn(CC(=O)N2C[C@H](F)C[C@H]2C(=O)Nc2cccc(C(F)(F)F)n2)c2ccc(-c3cnc(C)nc3)cc12 [Compound 562, (2S,4R)-1-(2-(3-Acetyl-5-(2-methylpyrimidin-5-yl)-1H-indazol-1-yl)acetyl)-4-fluoro-N-(6-(trifluoromethyl)pyridin-2-yl)pyrrolidine-2-carboxamide]
[2]
  IC50: < 1000 nM

## CC(=O)c1nn(CC(=O)N2C[C@H](F)C[C@H]2C(=O)Nc2cccc(Br)n2)c2ccc(-c3cnc4ccnn4c3)cc12 [Compound 234, (2S,4R)-1-(2-(3-acetyl-5-(pyrazolo[1,5-a]pyrimidin-6-yl)-1H-indazol-1-yl)acetyl)-N-(6-bromopyridin-2-yl)-4-fluoropyrrolidine-2-carboxamide]
[4]
  IC50: < 1000 nM

## COc1cc2c(cc1-c1cnc(C)nc1)c(C(C)=O)cn2CC(=O)N1C[C@H](F)C[C@H]1C(=O)Nc1cccc(-c2ccccc2Cl)c1F [Compound 318, (2S,4R)-1-(2-(3-Acetyl-6-methoxy-5-(2-methylpyrimidin-5-yl)-1H-indol-1-yl)acetyl)-N-(2′-chloro-2-fluoro-[1,1′-biphenyl]-3-yl)-4-fluoropyrrolidine-2-carboxamide]
[4]
  IC50: < 1000 nM

— patent US10287301B2 (Achillion Pharmaceuticals, Inc., priority 2015, dated 2019)
